Target: human orexin-2 receptor (Homo sapiens (Human), UniProt O43614)
Test: Human orexin 2 receptor radioligand binding ([3H]-EMPA competition)
Settings: HEK293 cells stably expressing human orexin-2 receptor; [3H]-EMPA 5 nM final; apparent Ki=IC50/(1+C/Kd), Kd=2 nM; read-out: OR 2 Ki

human orexin-2 receptor, sequence (O43614 whole entry): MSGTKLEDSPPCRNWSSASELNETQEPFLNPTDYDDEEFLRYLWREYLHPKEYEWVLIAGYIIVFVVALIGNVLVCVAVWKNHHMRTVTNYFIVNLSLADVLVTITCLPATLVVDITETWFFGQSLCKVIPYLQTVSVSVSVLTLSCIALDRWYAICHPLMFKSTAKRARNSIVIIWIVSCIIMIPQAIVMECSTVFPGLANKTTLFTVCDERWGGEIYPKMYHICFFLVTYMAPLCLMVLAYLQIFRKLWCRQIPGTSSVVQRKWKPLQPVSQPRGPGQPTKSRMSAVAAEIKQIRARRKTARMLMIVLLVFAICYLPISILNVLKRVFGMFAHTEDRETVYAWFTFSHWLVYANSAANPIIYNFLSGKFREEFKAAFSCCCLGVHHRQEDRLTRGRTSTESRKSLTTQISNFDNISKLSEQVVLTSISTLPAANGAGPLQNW

Structure (SMILES)	Ki
Cc1cc(N2CC3CN(C(=O)c4ccccc4-n4nccn4)CC3C2)nc(N(C)C)n1 (centres unmarked) [Example 120, N,N,4-Trimethyl-6-[5-{[2-(2H-1,2,3-triazol-2-yl)phenyl]carbonyl}hexahydropyrrolo[3,4-c]pyrrol-2(1H)-yl]pyrimidin-2-amine]	0.071 µM
Cc1nc(N2CC3CN(C(=O)c4ccccc4-c4ncn(C)n4)CC3C2)ncc1F (centres unmarked) [Example 312, 2-(5-Fluoro-4-methylpyrimidin-2-yl)-5-{[2-(1-methyl-1H-1,2,4-triazol-3-yl)phenyl]carbonyl}octahydropyrrolo[3,4-c]pyrrole]	0.079 µM
Cc1cc(C)nc(N2CC3CN(C(=O)c4cnnc5ccccc45)CC3C2)n1 (centres unmarked) [Example 203, Cinnolin-4-yl-[5-(4,6-dimethyl-pyrimidin-2-yl)-hexahydro-pyrrolo[3,4-c]pyrrol-2-yl]-methanone]	5 µM
Cc1cc(C)nc(N2CC3CN(C(=O)c4sccc4-n4cccc4)CC3C2)n1 (centres unmarked) [Example 8, 2-(4,6-Dimethylpyrimidin-2-yl)-5-{[3-(1H-pyrrol-1-yl)thiophen-2-yl]carbonyl}octahydro-pyrrolo[3,4-c]pyrrole]	0.542 µM
Cc1nccc(N2CC3CN(C(=O)c4ccccc4-n4nccn4)CC3C2)n1 (centres unmarked) [Example 210, [5-(2-Methyl-pyrimidin-4-yl)-hexahydro-pyrrolo[3,4-c]pyrrol-2-yl]-(2-[1,2,3]triazol-2-yl-phenyl)-methanone]	3 µM
Cc1cc(N(C)C)nc(N2CC3CN(C(=O)c4cc(F)ccc4-n4nccn4)CC3C2)n1 (centres unmarked) [Example 124, 2-[5-{[5-Fluoro-2-(2H-1,2,3-triazol-2-yl)phenyl]carbonyl}hexahydropyrrolo[3,4-c]pyrrol-2(1H)-yl]-N,N,6-trimethylpyrimidin-4-amine]	0.422 µM
Cc1ccc(-c2cc(F)ccc2C(=O)N2CC3CN(c4nc(C)cc(C)n4)CC3C2)nc1 (centres unmarked) [Example 248, (5-(4,6-dimethylpyrimidin-2-yl)hexahydropyrrolo[3,4-c]pyrrol-2(1H)-yl)(4-fluoro-2-(5-methylpyridin-2-yl)phenyl)methanone]	0.17 µM
CCc1ccccc1C(=O)N1CC2CN(c3cnc4ccccc4n3)CC2C1 (centres unmarked) [Example 35, 2-{5-[(2-Ethylphenyl)carbonyl]hexahydropyrrolo[3,4-c]pyrrol-2(1H)-yl}quinoxaline]	0.722 µM
O=C(c1ccccc1-c1cccnc1)N1CC2CN(c3cnc4ccccc4n3)CC2C1 (centres unmarked) [Example 181, (2-Pyridin-3-yl-phenyl)-(5-quinoxalin-2-yl-hexahydro-pyrrolo[3,4-c]pyrrol-2-yl)-methanone]	3.56 µM
O=C(c1ccccc1-n1nccn1)N1CC2CN(c3cc(C(F)(F)F)nc(N4CCCC4)n3)CC2C1 (centres unmarked) [Example 214, [5-(2-Pyrrolidin-1-yl-6-trifluoromethyl-pyrimidin-4-yl)-hexahydro-pyrrolo[3,4-c]pyrrol-2-yl]-(2-[1,2,3]triazol-2-yl-phenyl)-methanone]	1.23 µM
O=C(c1ccccc1-c1cccs1)N1CC2CN(c3nccc(-c4ccco4)n3)CC2C1 (centres unmarked) [Example 34, 2-(4-Furan-2-ylpyrimidin-2-yl)-5-[(2-thiophen-2-ylphenyl)carbonyl]octahydro-pyrrolo[3,4-c]pyrrole]	0.079 µM
Cc1cc(C)nc(N2CC3CN(C(=O)c4ccccc4Br)CC3C2)n1 (centres unmarked) [Example 82, 2-[(2-Bromophenyl)carbonyl]-5-(4,6-dimethylpyrimidin-2-yl)octahydropyrrolo[3,4-c]pyrrole]	0.379 µM
Cc1cc(C)nc(N2CC3CN(C(=O)c4cc(F)ccc4-c4ccccn4)CC3C2)n1 (centres unmarked) [Example 403, (5-(4,6-Dimethylpyrimidin-2-yl)hexahydropyrrolo[3,4-c]pyrrol-2(1H)-yl)(5-fluoro-2-(pyridin-2-yl)phenyl)methanone]	0.18 µM
Cc1ccc(-c2ncccn2)c(C(=O)N2CC3CN(c4cc(C)nc(C(F)(F)F)n4)CC3C2)c1 (centres unmarked) [Example 112, 2-[(5-Methyl-2-pyrimidin-2-ylphenyl)carbonyl]-5-[6-methyl-2-(trifluoromethyl)pyrimidin-4-yl]octahydropyrrolo[3,4-c]pyrrole]	0.095 µM
Cc1cc(C)nc(N2CC3CN(C(=O)c4ncccc4-c4ccccc4)CC3C2)n1 (centres unmarked) [Example 208, [5-(4,6-Dimethyl-pyrimidin-2-yl)-hexahydro-pyrrolo[3,4-c]pyrrol-2-yl]-(3-phenyl-pyridin-2-yl)-methanone]	2.1 µM
Cc1cc(C)nc(N2CC3CN(C(=O)c4ccc(F)cc4-c4ncccn4)CC3C2)n1 (centres unmarked) [Example 231, (5-(4,6-Dimethylpyrimidin-2-yl)hexahydropyrrolo[3,4-c]pyrrol-2(1H)-yl)(4-fluoro-2-(pyrimidin-2-yl)phenyl)methanone]	0.068 µM
Cc1ccnc(-c2ccc(F)cc2C(=O)N2CC3CN(c4nc(C)cc(C)n4)CC3C2)c1 (centres unmarked) [Example 400, (5-(4,6-Dimethylpyrimidin-2-yl)hexahydropyrrolo[3,4-c]pyrrol-2(1H)-yl)(5-fluoro-2-(4-methylpyridin-2-yl)phenyl)methanone]	0.51 µM
O=C(c1ccccc1-c1ccccc1)N1CC2CN(c3nc4ccccc4s3)CC2C1 (centres unmarked) [Example 169, 2-[5-(Biphenyl-2-ylcarbonyl)hexahydropyrrolo[3,4-c]pyrrol-2(1H)-yl]-1,3-benzothiazole]	0.595 µM
Cc1cc(C)c(C(=O)N2CC3CN(c4nc(C)cc(C)n4)CC3C2)c(C)c1 (centres unmarked) [Example 270, (5-(4,6-Dimethylpyrimidin-2-yl)hexahydropyrrolo[3,4-c]pyrrol-2(1H)-yl)(mesityl)methanone]	1.03 µM
COc1ccnc(N2CC3CN(C(=O)c4cc(F)ccc4-c4ncccn4)CC3C2)n1 (centres unmarked) [Example 150, 2-[(5-Fluoro-2-pyrimidin-2-ylphenyl)carbonyl]-5-(4-methoxypyrimidin-2-yl)octahydropyrrolo[3,4-c]pyrrole]	0.092 µM
CN(C)c1cc(N2CC3CN(C(=O)c4cc(F)ccc4-n4nccn4)CC3C2)nc(C(F)(F)F)n1 (centres unmarked) [Example 9, 6-[5-{[5-Fluoro-2-(2H-1,2,3-triazol-2-yl)phenyl]carbonyl}hexahydropyrrolo[3,4-c]pyrrol-2(1H)-yl]-N,N-dimethyl-2-(trifluoromethyl)pyrimidin-4-amine]	0.101 µM
CCOc1cccc(N2CC3CN(C(=O)c4ccccc4-n4nccn4)CC3C2)n1 (centres unmarked) [Example 147, 2-(6-Ethoxypyridin-2-yl)-5-{[2-(2H-1,2,3-triazol-2-yl)phenyl]carbonyl}octahydro pyrrolo[3,4-c]pyrrole]	0.085 µM
O=C(c1ccccc1-n1cccc1)N1CC2CN(c3nccc(-c4ccccc4)n3)CC2C1 (centres unmarked) [Example 24, 2-(4-Phenylpyrimidin-2-yl)-5-{[2-(1H-pyrrol-1-yl)phenyl]carbonyl}octahydro-pyrrolo[3,4-c]pyrrole]	0.415 µM
Cc1cc(C)nc(N2CC3CN(C(=O)c4ccc5ccccc5c4Br)CC3C2)n1 (centres unmarked) [Example 337, (1-Bromo-naphthalen-2-yl)-[5-(4,6-dimethyl-pyrimidin-2-yl)-hexahydro-pyrrolo[3,4-c]pyrrol-2-yl]-methanone]	0.513 µM

Now those with a lower Ki, led by results:

Ki	Structure (SMILES)
0.047 µM	Cc1ccnc(N2CC3CN(C(=O)c4ccccc4-c4cccs4)CC3C2)n1 (centres unmarked) [Example 32, 2-(4-Methylpyrimidin-2-yl)-5-[(2-thiophen-2-ylphenyl)carbonyl]octahydro-pyrrolo[3,4-c]pyrrole]
0.065 µM	Cc1cc(C)nc(N2CC3CN(C(=O)c4ccccc4-c4cccc(F)c4)CC3C2)n1 (centres unmarked) [Example 52, 2-(4,6-Dimethylpyrimidin-2-yl)-5-[(3′-fluorobiphenyl-2-yl)carbonyl]octahydro-pyrrolo[3,4-c]pyrrole]
0.042 µM	COc1cc(N2CC3CN(C(=O)c4ccc(F)cc4-n4nccn4)CC3C2)nc(N(C)C)n1 (centres unmarked) [Example 7, 4-[5-{[4-Fluoro-2-(2H-1,2,3-triazol-2-yl)phenyl]carbonyl}hexahydropyrrolo[3,4-c]pyrrol-2(1H)-yl]-6-methoxy-N,N-dimethylpyrimidin-2-amine]
0.052 µM	Cc1cc(C)nc(N2CC3CN(C(=O)c4cccc(F)c4I)CC3C2)n1 (centres unmarked) [Example 232, (5-(4,6-Dimethylpyrimidin-2-yl)hexahydropyrrolo[3,4-c]pyrrol-2(1H)-yl)(3-fluoro-2-iodophenyl)methanone]
0.053 µM	COc1cc(OC)nc(N2CC3CN(C(=O)c4ccccc4-n4nccn4)CC3C2)n1 (centres unmarked) [Example 84, 2-(4,6-Dimethoxypyrimidin-2-yl)-5-{[2-(2H-1,2,3-triazol-2-yl)phenyl]carbonyl}octahydropyrrolo[3,4-c]pyrrole]
0.038 µM	Cc1ccc(-c2ncccn2)c(C(=O)N2CC3CN(c4nc(C)cnc4C)CC3C2)c1 (centres unmarked) [Example 103, 2-(3,6-Dimethylpyrazin-2-yl)-5-[(5-methyl-2-pyrimidin-2-ylphenyl)carbonyl]octahydropyrrolo[3,4-c]pyrrole]
0.008 µM	Cc1cc(C)nc(N2CC3CN(C(=O)c4cccc(F)c4-c4ccn[nH]4)CC3C2)n1 (centres unmarked) [Example 284, 2-(4,6-Dimethylpyrimidin-2-yl)-5-{[3-fluoro-2-(1H-pyrazol-5-yl)phenyl]carbonyl}octahydropyrrolo[3,4-c]pyrrole]
0.007 µM	Cc1nc(N2CC3CN(C(=O)c4ccccc4-c4nnc[nH]4)CC3C2)nc(C)c1C (centres unmarked) [Example 305, 2-{[2-(4H-1,2,4-Triazol-3-yl)phenyl]carbonyl}-5-(4,5,6-trimethylpyrimidin-2-yl)octahydropyrrolo[3,4-c]pyrrole]
0.066 µM	O=C(c1ccccc1-c1ccccc1)N1CC2CN(c3cnc4ccccc4n3)CC2C1 (centres unmarked) [Example 168, 2-[5-(Biphenyl-2-ylcarbonyl)hexahydropyrrolo[3,4-c]pyrrol-2(1H)-yl]quinoxaline]
0.007 µM	Cc1nc(N2CC3CN(C(=O)c4cccc(F)c4-n4nccn4)CC3C2)nc(C)c1C (centres unmarked) [Example 240, (3-Fluoro-2-(2H-1,2,3-triazol-2-yl)phenyl)(5-(4,5,6-trimethylpyrimidin-2-yl)hexahydropyrrolo[3,4-c]pyrrol-2(1H)-yl)methanone]
0.017 µM	Cc1cc(C)nc(N2CC3CN(C(=O)c4ccccc4-c4ccccn4)CC3C2)n1 (centres unmarked) [Example 69, 2-(4,6-Dimethylpyrimidin-2-yl)-5-[(2-pyridin-2-ylphenyl)carbonyl]octahydro-pyrrolo[3,4-c]pyrrole]
